From US8232099B2, “Method for transcription/degradation dual control of protein by antibiotic” (Japan Science and Technology Agency, priority 2007, dated 2012)
Residues, ends and D or L forms follow the SMILES beside them. *: point of attachment. Cbz = O=C(OCc1ccccc1)*

Columns and labels:
Format in all cases: cell-based, human
mutant TetR-EGFP = assay: Flow cytometer fluorescence of HEp-2 cells expressing mutant TetR-EGFP; details: various concentrations
From the text: (§1) All of or any two mutations in combination from three types of mutations, which substitute aspartic acid at the 95th position with asparagine, leucine at the 101st position with serine and glycine at the 102nd position with aspartic acid, were introduced into the tetracycline repressor (TetR), which is an Escherichia coli protein that binds to the antibiotic tetracycline (Tet). The procedure was as follows:
An oligonucleotide encoding an amino acid sequence containing the amino acid substitution to be introduced was synthesized, and this was used to prepare a DNA fragment containing a mutation by PCR reaction. […]
(§2) An oligo-DNA was synthesized, having a base sequence in which the termination codon has been substituted so as to encode another amino acid instead of the termination codon in the TetR gene, and downstream thereof, a sequence that is recognized and cut by a restriction enzyme; this was used to carry out a PCR reaction to prepare a DNA fragment encoding TetR with no termination codon, and this was substituted with the corresponding site on the DNA encoding the wild-type gene. Then, the DNA was cut by a restriction enzyme and ligated with the upstream side of a DNA fragment encoding EGFP in such a way that the translation open reading frames for protein synthesis match (FIG. 1A). […]

[1] = test system: pOSTet15-eTetREGFP and pOSTet15-hTetREGFP; assay: EGFP expression induction in HEp-2, dual control of transcription and degradation
From the text: A cDNA was integrated into the constitutive gene expression vector “pEB6CAG” or the vector “pOSTet15” enabling transcription-regulated expression through doxycycline, which the present inventors developed by applying the methods in Japanese National-phase PCT Laid-Open Patent Publication No. 2003-515314 (the entirety of which is incorporated herein by reference). The cDNA to be expressed integrates a simple fluorescent protein EGFP, or eTetREGFP or hTetREGFP, which degradation control is enabled by doxycycline. […]
Using a commercially available lipofection reagent, this DNA was introduced into the human cell line HEp-2, the cell line was cultured for four days in the presence of 1.5 mg/ml G418, and only cells with the DNA introduced were selected. These cells were subjected to a flow cytometer and the intensity of fluorescence by EGFP was measured cell by cell to determine the average fluorescence intensity thereof.

pOSTet15-TetRhCre = assay: Cre recombination reporter (Venus to DsRed1) in HEp-2, dual control; parameters: cells displaying red fluorescence only: dose or concentration left out as unconfirmed
From the text: As vectors to control the expression of the […] Cre protein, three types of vectors were constructed for: control by protein degradation only, control by transcription only and dual control. […] Three types of vectors were constructed, “pEB6CAG-TetRhCre”, which enables control by degradation alone, and created by turning the hCre cDNA into TetRhCre which enables degradation control by doxycycline, and which was then integrated into the constitutive gene expression vector “pEB6CAG” described above; “pOSTet15-hCre”, which enables control by transcription alone and was created by integrating hCre cDNA into “pOSTet15”: “pOSTet15-TetRhCre”, which enables dual control and created by integrating TetRhCre into “pOSTet15”. In addition to these, as a monitoring vector for confirming the DNA recombination effect by the Cre protein, a recombination reporter vector in which the yellow fluorescent protein Venus was flanked by loxP sequences and the red fluorescent protein DsRed1 was placed downstream thereof, “pEB6CAG-Venus-lox-R1-SRZ” (FIG. 10), was also constructed. […] The expression effect of Cre can be detected simply from this change in fluorescence wavelength (FIG. 10).
Using a commercially available lipofection reagent, this DNA was introduced into the human cell line HEp-2, the cell line was cultured for four days in the presence of 1.5 mg/ml G418 and 0.1 mg/ml zeocin, and only cells with the two species of DNA introduced were selected. Fluorescences at two wavelengths, yellow and red, were measured with a flow cytometer.
Next, comparison on the capabilities was performed, between when Cre protein expression regulation is carried out by protein degradation control alone and transcription control alone, and the dual control system of the present invention. […]
Next, analyses were performed on the influence of the concentration of doxycycline exerted on recombination efficiency. Two species, the vector for Cre dual control and the recombination reporter vector described above, were introduced into a cell, and after selection over […] efficiency.

pEB6CAG-TetRhCre = assay: Cre recombination reporter in HEp-2, control by protein degradation alone; details: 1.0 μg/ml doxycycline
From the text: (§3) As vectors to control the expression of the lambda phage Cre protein, three types of vectors were constructed for: control by protein degradation only, control by transcription only and dual control. […] The expression effect of Cre can be detected simply from this change in fluorescence wavelength (FIG. 10).

pOSTet15-hCre = assay: Cre recombination reporter in HEp-2, control by transcription alone; details: 1.0 μg/ml doxycycline
From the text: as §3

wild-type TetR-EGFP = molecular target: T1, wild-type TetR-EGFP (Escherichia coli, UniProt P04483); assay: Flow cytometer fluorescence of HEp-2 cells expressing wild-type TetR-EGFP; details: 100 μg/ml MG132, 12 hours
T1 construct: prepare a DNA fragment encoding TetR with no termination codon; expressed in transfected cells; host or cells: human cell line HEp-2, vector pEB6CAG
T1 sequence (P04483 whole entry, the tested form may be a part): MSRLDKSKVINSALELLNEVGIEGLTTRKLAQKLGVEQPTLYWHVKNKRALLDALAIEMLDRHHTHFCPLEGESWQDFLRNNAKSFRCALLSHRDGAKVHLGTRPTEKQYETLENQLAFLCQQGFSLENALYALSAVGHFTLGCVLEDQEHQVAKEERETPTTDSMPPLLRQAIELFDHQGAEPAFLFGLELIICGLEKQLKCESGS
From the text: as §1
Next, cDNAs encoding TetR-EGFP in which wild-type TetR gene and mutation-introduced TetR gene, respectively, are fused with green fluorescent protein (EGFP) were created. The procedure was as follows.
as §2

C[C@H]1c2cccc(O)c2C(=O)C2=C(O)[C@]3(O)C(=O)C(C(N)=O)=C(O)[C@@H](N(C)C)[C@@H]3[C@@H](O)[C@@H]21 [doxycycline]
concentration at which enhancement of fluorescence started to be observed (mutant TetR-EGFP): ≥ 0.05 µg/mL | concentration at which the maximum intensity of fluorescence was reached (mutant TetR-EGFP): 1.5 µg/mL | induction ratio of fluorescence, doxycycline added vs not added [1]: ≥ 400 times | cells displaying red fluorescence only (pOSTet15-TetRhCre): 60% | decrease in cell count due to cytotoxicity (pOSTet15-TetRhCre; 1.0 μg/ml doxycycline, treated for three days): almost no decrease in cell count | cells changed to red fluorescence (pOSTet15-TetRhCre; 1.0 μg/ml doxycycline, treatment of only one day): ≥ 70% | cells in which red fluorescence was detected (red only plus both yellow and red) (pOSTet15-TetRhCre; 1 mg/ml doxycycline): ≥ 70% | concentration needed to ensure that recombination occurs (pOSTet15-TetRhCre; four concentration steps from 0.001 μg/ml to 1.0 μg/ml): 1.0 µg/mL | cytotoxicity when doxycycline was added (pEB6CAG-TetRhCre): killing cells | cytotoxicity when doxycycline was added (pOSTet15-hCre): cytotoxicity was observed

CC(C)C[C@@H](C=O)NC(=O)[C@H](CC(C)C)NC(=O)[C@H](CC(C)C)NC(=O)OCc1ccccc1 [MG132] (Cbz-Leu-Leu-Leu-aldehyde)
change in intensity of fluorescence (wild-type TetR-EGFP): no major change
